Here are results for one compound from patent US20240358693A1, “METHODS OF TREATING PAIN” (Aisa Pharma, Inc., priority 2023, published 2024).

The subject of one data set is participants with SSc-RP. As to the kind of experiment: Summary of data: dose response / overall response, Phase 2a study Part A. The data set is classed as in vivo, human. The settings on record: 20 mg dose group. An excerpt: Table S provides a summary of data:
The conditions of data set [1]: oral dosing; cited from earlier work.
Data set [2] has as its system rat brain homogenate proteins. The data set is described as follows: In vitro equilibrium dialysis (RED) protein binding, rat brain homogenate. The data set is classed as in vitro ADME. As for the experimental part:
(§1) Cilnidipine was tested by PsychoGenics using standard methodology in 96-well RED (Rapid Equilibrium Dialysis) plates from Thermo Fisher Scientific. Male Sprague-Dawley plasma and brain were obtained from BioIVT to provide the required protein matrix. Plasma was used undiluted, and brain homogenate was diluted 3 to 1 with PBS, pH 7.4. The protein matrix was spiked with the test compound dissolved in DMSO to achieve a 10 μM solution. Three chambers were used to allow for triplicate measures with a final DMSO concentration of <1% in each. The dialysate compartments of the 96-well dialysis chamber was loaded with PBS, pH 7.4 and the sample side was loaded with equal volume of the spiked protein matrix. The dialysis plate was then sealed and incubated at 37° C. for 4 h. After the incubation, samples were taken from each compartment. The buffer side was diluted with the appropriate matrix (plasma or brain homogenate) and the protein matrix side diluted with phosphate buffer. Resultant samples were then crashed in acetonitrile, centrifuged and the supernatant mixed with an aqueous solution providing samples for UPLC-MS/MS analysis. […] This control sample served as the basis for the determination of recovery. […] Samples were analyzed by UPLC-MS/MS using […] (MRM). The UPLC conditions consisted of a binary LC pump with autosampler, an InertSustain column (C18 column, 2.1×50 mm), utilizing gradient elution. The peak areas of the test compound in the buffer and test samples were used to calculate percent binding and recovery according to the following formulas: […]
(§2) The recovery determination serves as an indicator of reliability of the calculated protein binding value.
(§3) The characterization of protein binding is defined using the following ranges:
(§4) • Low 0 to 50% • Moderate 50 to 90% • High 90 to 99% • Very High>99%

Experiment in data set [3]: as above
The data set is classed as in vitro ADME. The conditions noted are these: male, Sprague-Dawley, rat, pH 7.4. On the procedure:
as §1, §2, §3, §4

For data set [4] the following is noted: 10 mg Cilnidipine, Healthy Volunteers, single oral dose; cited from earlier work.
A short description of data set [5]: In vitro equilibrium dialysis (RED) protein binding, rat plasma. The data set is classed as in vitro ADME. The conditions noted are these: male, Sprague-Dawley, pH 7.4. As for the experimental part:
as §1, §2, §3, §4

The subject of another data set is rat plasma proteins. The data set is described as above. The data set is classed as in vitro ADME. On the procedure:
as §1, §2, §3, §4

Setting [6] is: male, Sprague-Dawley, plasma, 4 h, 10 μM, pH 7.4.

Some results are limits rather than exact numbers.

As to `COCCOC(=O)C1=C(C)NC(C)=C(C(=O)OC/C=C/c2ccccc2)C1c1cccc([N+](=O)[O-])c1` (stereo not shown) [Cilnidipine, cilnidipine], in the data set with participants with SSc-RP, the “Efficacy seen: overall response” value is “shows best overall”. Also, in data set [1], the “time to achieve maximal plasma concentrations (Tmax)” value was ≤ 2 h. In data set [2], the stability in brain result is recorded as “stable”. The same compound came in with a binding to brain in data set [2] (male, Sprague-Dawley, rat, 4 h, 10 μM, pH 7.4) of 99.2%. For the same compound, the “Unbound (%)” value in data set [2] (male, Sprague-Dawley, rat, brain homogenate, 4 h, 10 μM, pH 7.4) was found to be 0.8 ± 0.03%; in the data set on rat plasma proteins (setting [6]), 0.0 ± 0.00%. This compound also had a fraction unbound at 4 h, 10 μM in data set [3] (brain homogenate) of 0.008. The recovery at 4 h, 10 μM in data set [3] was determined as 93.7 ± 3.25%; in data set [5] it was 92.9 ± 4.69%. Moreover, the “CL/F, Mean” value in data set [4] was 304.7 L/h. In addition, in the data set with rat plasma proteins (male, Sprague-Dawley, 4 h, 10 μM, pH 7.4), the binding to plasma stood at 100%. For the same compound, the “Protein Binding (%)” value with rat plasma proteins (setting [6]) turned out to be 100.0 ± 0.00%. Besides, the stability in plasma entry in the data set on rat plasma proteins (plasma) is listed as “stable”.
